Compound: Cc1cnc(CNC(=O)c2c(=O)c3ccc(N4CCCN(C)CC4)nc3n3c2sc2ccccc23)cn1 [CX-5461] + C[C@]1(O)C[C@@H](c2nc(-c3ccc4ccc(-c5ccccc5)nc4c3)c3c(N)nccn32)C1 [Linsitinib] (partner 1 µM)
Assay: relative viability (nuclei count vs DMSO), 5 days (fraction); higher = more cells survive
Conditions: first compound 0.01 µM
Method in brief: (§1)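 Lung cancer cell lines in 1536-well plates got either a single drug or a fixed anchor-drug dose together with five library-drug doses (not always all listed) in √10 steps, by pin tool, on the day after seeding. Nuclei were counted after 5 days, and relative viability is the treated-to-vehicle ratio of nuclei counts. Values are medians of duplicate plates.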

Cell Line | relative viability
LC-2-ad | 0.808
NCI-H1563 | 1.19
NCI-H1975 | 1.06
RERF-LC-KJ | 0.834
ABC-1 | 1.11
SK-MES-1 | 1.16
NCI-H650 | 0.955
PC-3 [JPC-3] | 0.937

Same assay, conditions: first compound 0.03162 µM

Cell Line | relative viability
LC-2-ad | 0.886
NCI-H1563 | 1.14
NCI-H1975 | 0.983
RERF-LC-KJ | 0.944
ABC-1 | 0.84
SK-MES-1 | 1.12
NCI-H650 | 0.999
PC-3 [JPC-3] | 0.885

Same assay, conditions: first compound 0.1 µM

Cell Line | relative viability
LC-2-ad | 0.829
NCI-H1563 | 0.894
NCI-H1975 | 0.784
RERF-LC-KJ | 0.972
SK-MES-1 | 1.1
NCI-H650 | 0.697
PC-3 [JPC-3] | 0.933

Same assay, conditions: first compound 0.3162 µM

Cell Line | relative viability
LC-2-ad | 0.858
NCI-H1563 | 0.995
NCI-H1975 | 1
RERF-LC-KJ | 0.866
ABC-1 | 0.817
SK-MES-1 | 1.11
NCI-H650 | 0.571
PC-3 [JPC-3] | 0.936

Same assay, conditions: first compound 1 µM

Cell Line | relative viability
LC-2-ad | 0.833
NCI-H1563 | 0.664
NCI-H1975 | 0.629
RERF-LC-KJ | 0.797
ABC-1 | 0.494
SK-MES-1 | 0.999
NCI-H650 | 0.373
PC-3 [JPC-3] | 0.918

Compound: O=C(Nc1cc(C(F)(F)F)cc(C(F)(F)F)c1)c1cc(Cl)ccc1O [IMD-0354] + COc1cccc2cc(-c3nc([C@H]4CC[C@H](C(=O)O)CC4)n4ncnc(N)c34)[nH]c12 [OSI-027] (partner 0.5 µM)
Assay: as above
Conditions: first compound 0.04 µM
Method in brief: as §1

Cell Line | relative viability
LC-2-ad | 0.827
NCI-H1563 | 0.775
NCI-H1975 | 0.917
RERF-LC-KJ | 0.649
ABC-1 | 0.517
SK-MES-1 | 0.647
NCI-H650 | 0.591
PC-3 [JPC-3] | 0.845

Same assay, conditions: first compound 0.1265 µM

Cell Line | relative viability
LC-2-ad | 0.852
NCI-H1563 | 0.769
NCI-H1975 | 0.6
RERF-LC-KJ | 0.628
ABC-1 | 0.331
SK-MES-1 | 0.542
NCI-H650 | 0.498
PC-3 [JPC-3] | 0.708

Same assay, conditions: first compound 0.4 µM

Cell Line | relative viability
LC-2-ad | 0.441
NCI-H1563 | 0.66
NCI-H1975 | 0.402
RERF-LC-KJ | 0.493
ABC-1 | 0.369
SK-MES-1 | 0.462
NCI-H650 | 0.447
PC-3 [JPC-3] | 0.605

Same assay, conditions: first compound 1.265 µM

Cell Line | relative viability
LC-2-ad | 0.298
NCI-H1563 | 0.297
NCI-H1975 | 0.205
RERF-LC-KJ | 0.198
ABC-1 | 0.207
SK-MES-1 | 0.199
NCI-H650 | 0.29
PC-3 [JPC-3] | 0.344

Same assay, conditions: first compound 4 µM

Cell Line | relative viability
LC-2-ad | 0.193
NCI-H1563 | 0.413
NCI-H1975 | 0.155
RERF-LC-KJ | 0.214
ABC-1 | 0.23
SK-MES-1 | 0.202
NCI-H650 | 0.177
PC-3 [JPC-3] | 0.282

Compound: Cc1cnc(CNC(=O)c2c(=O)c3ccc(N4CCCN(C)CC4)nc3n3c2sc2ccccc23)cn1 [CX-5461] + CS(=O)(=O)CCNCc1ccc(-c2ccc3ncnc(Nc4ccc(OCc5cccc(F)c5)c(Cl)c4)c3c2)o1 [Lapatinib] (partner 2 µM)
Assay: as above
Conditions: first compound 0.01 µM
Method in brief: as §1

Cell Line | relative viability
LC-2-ad | 0.971
NCI-H1563 | 0.889
NCI-H1975 | 1.14
RERF-LC-KJ | 0.785
ABC-1 | 1.17
SK-MES-1 | 0.431
NCI-H650 | 0.94
PC-3 [JPC-3] | 0.453

Same assay, conditions: first compound 0.03162 µM

Cell Line | relative viability
LC-2-ad | 1.02
NCI-H1563 | 0.852
NCI-H1975 | 0.921
RERF-LC-KJ | 0.701
ABC-1 | 1.32
SK-MES-1 | 0.474
NCI-H650 | 1.01
PC-3 [JPC-3] | 0.443

Same assay, conditions: first compound 0.1 µM

Cell Line | relative viability
LC-2-ad | 0.816
NCI-H1563 | 0.661
NCI-H1975 | 0.855
RERF-LC-KJ | 0.877
ABC-1 | 1.04
SK-MES-1 | 0.454
NCI-H650 | 0.915
PC-3 [JPC-3] | 0.464

Same assay, conditions: first compound 0.3162 µM

Cell Line | relative viability
LC-2-ad | 0.685
NCI-H1563 | 0.683
NCI-H1975 | 0.927
RERF-LC-KJ | 0.637
SK-MES-1 | 0.512
NCI-H650 | 0.312
PC-3 [JPC-3] | 0.421

Same assay, conditions: first compound 1 µM

Cell Line | relative viability
LC-2-ad | 0.476
NCI-H1563 | 0.477
NCI-H1975 | 0.386
RERF-LC-KJ | 0.765
ABC-1 | 1.05
SK-MES-1 | 0.403
NCI-H650 | 0.934
PC-3 [JPC-3] | 0.473

Compound: Cc1cnc(CNC(=O)c2c(=O)c3ccc(N4CCCN(C)CC4)nc3n3c2sc2ccccc23)cn1 [CX-5461] + C[C@@H](Oc1cc(-c2cnn(C3CCNCC3)c2)cnc1N)c1c(Cl)ccc(F)c1Cl [Crizotinib] (partner 1 µM)
Assay: as above
Conditions: first compound 0.01 µM
Method in brief: as §1

Cell Line | relative viability
LC-2-ad | 0.491
NCI-H1563 | 0.865
NCI-H1975 | 1.13
RERF-LC-KJ | 0.807
ABC-1 | 1.07
SK-MES-1 | 0.969
NCI-H650 | 0.666
PC-3 [JPC-3] | 0.987

Same assay, conditions: first compound 0.03162 µM

Cell Line | relative viability
LC-2-ad | 0.522
NCI-H1563 | 0.725
NCI-H1975 | 0.986
RERF-LC-KJ | 0.562
ABC-1 | 1.57
SK-MES-1 | 1.14
NCI-H650 | 0.961
PC-3 [JPC-3] | 0.996

Same assay, conditions: first compound 0.1 µM

Cell Line | relative viability
LC-2-ad | 0.363
NCI-H1563 | 0.774
NCI-H1975 | 0.821
RERF-LC-KJ | 0.833
SK-MES-1 | 1.01
NCI-H650 | 0.668
PC-3 [JPC-3] | 0.969

Same assay, conditions: first compound 0.3162 µM

Cell Line | relative viability
LC-2-ad | 0.286
NCI-H1563 | 0.675
NCI-H1975 | 1.08
RERF-LC-KJ | 0.774
ABC-1 | 0.57
SK-MES-1 | 0.958
NCI-H650 | 0.309
PC-3 [JPC-3] | 0.952

Same assay, conditions: first compound 1 µM

Cell Line | relative viability
LC-2-ad | 0.454
NCI-H1563 | 0.464
NCI-H1975 | 0.462
RERF-LC-KJ | 0.778
ABC-1 | 0.323
SK-MES-1 | 0.948
NCI-H650 | 0.631
PC-3 [JPC-3] | 0.926

From the supplement of paper PMC10307832
